Assay results: US6964952B2, “Therapeutic composition for broad spectrum dermal disease” (Doosan Corporation, priority 2001, dated 2005)

Tests used:
[1] = system: full-thickness circular ear wounds; experiment: Wound repair in rabbits (6 mm punch wounds in ears); type: in vivo, New Zealand White rabbits; details: rabbit ear wounds; 5, 10, 50 μM, 10 μl every second day; FIG. 3
Procedure: As an experimental animal model, female New Zealand White rabbits (2 kg in body weight) were employed to evaluate the efficacy of phytosphingosine and derivatives thereof on wound healing.
The rabbits were anesthetized with an intramuscular injection of ketamine (3 to 4 mg/kg). After removing hairs and a horny layer (stratum corneum) inside the both ears, 4 full-thickness circular wounds were created in each ear using a 6 mm-punch biopsy. As a control, PBS solution containing 0.1% BSA was applied to the wound regions at an amount of 10 μl every second day. For test groups, a composition comprising lysophosphatidic acid only, a composition comprising sphingolipid long-chain base only, and a composition comprising a combination thereof were applied each at varying concentrations (5 μM, 10 μM and 50 μM) at a volume of 10 μl every second day. The wounds applied with those agents were sealed with Cathreep (Nichiban Co., Japan). On 4th and 8th day after application, the rabbits were sacrificed, and the wound areas were histologically examined.

Langerhans cells = experiment: Effect on number of Langerhans cells in skin explant; type: cell-based; details: 1% test sample
Procedure: Langerhans cells play a role in mediating immune response of the skin. Treatment of skin disorders related to a hypersensitive immune response can be accomplished by regulating either the number or the antigen-presenting ability of Langerhans cells. To examine the efficacy of sphingolipid long-chain base on the regulation of the number of Langerhans cells, a test was performed as follows. Each skin explant was applied with a 1% test sample containing sphingolipid.

protein kinase C (PKC) = experiment: Inhibition of protein kinase C in mouse epidermal cell line Pam212; type: cell-based; details: Pam212 cells treated at 100 μM and 400 μM; FIG. 6
Procedure: An anti-inflammation effect of the cream composition according to the invention was evaluated by assessing inhibition of protein kinase C (PKC) in mouse epidermal cell line (Pam212). The cultured epidermal cells at 2×10^7 cells/ml were treated with phytosphingosine or derivatives thereof at final concentrations of 100 μM, and 400 μM. After washing with PBS, the cells were disrupted using a homogenizer and centrifuged. The supernatant was passed through a DE52 column to obtain a fraction containing PKC. To measure the amount of activated PKC in the fractions, 5 μl each of a PKC coactivation 5× buffer, PKC activation 5× buffer, PKC biotinylated peptide substrate and ^32P-ATP mixture were added to a tube. For a negative control, 5 μl each of a PKC coactivation 5× buffer, Control 5× buffer, PKC biotinylated peptide substrate and ^32P-ATP mixture were measured. To the tubes were added 5 μl of respective PKC fractions. The reaction was performed at 30° C. for 5 min. After terminating the reaction by adding a 12.5 μl stop solution, a 10 μl aliquot was dropped on a SAM^2™ membrane. The membrane was washed 1× with 2M NaCl for 30 sec, 3× with 2M NaCl for 2 min, 4× with a solution of 1% H3PO4 and 2M NaCl for 2 min, and 2× with distilled water for 30 sec, followed by drying. Radioactivity was measured to examine a PKC inhibition effect.

human skin fibroblasts [2] = type: cell-based
human skin fibroblasts [3] = experiment: Tracing metabolic pathway in human skin fibroblasts (TLC of lipid extracts); type: in vitro ADME; details: 20 μM, 48 hrs
Procedure: Human skin fibroblasts were employed as the cell line for the study. Phytosphingosine, tetraacetyl phytosphingosine, and acetyl phytosphingosine were respectively dissolved in a mixture of ethanol/dodecane, preparing stock solutions at certain concentrations. When the fibroblasts became confluent in 7 cm diameter culture dishes, 20 μM of the respective test samples was added and cultured in a CO2 incubator for 48 hrs. Cells were harvested and treated according to a common extraction method for sphingolipids. Hydrolysis was performed under basic conditions at 37° C. overnight. The samples were passed through a reverse phase column to remove salts. The desalted lipid extracts were subjected to a TLC analysis on Silica gel 60 G plates (Merck, Germany), using chloroform/methanol/concentrated acetic acid (190/9/1) to elute neutral lipids.

Row | Compound | Rates of wound healing (%) compared to untreated control group [1] | Efficacy on reducing the number of Langerhans cells (comparison) (Langerhans cells) | PKC inhibition effect (protein kinase C (PKC)) | Cytotoxicity relative to other sphingolipid long-chain bases (human skin fibroblasts [2]) | Metabolic conversion within the cells (human skin fibroblasts [3])
1 | CCCCCCCCCCCCCC[C@@H](O)[C@@H](O)[C@@H](N)CO [phytosphingosine] | highly accelerate the rates of wound healing | greater than that of tetraacetyl phytosphingosine | excellent PKC inhibition effects |  | 
2 | tetraacetyl phytosphingosine |  |  | excellent PKC inhibition effects | lower cytotoxicity than other sphingolipid long-chain bases | converted to C2-phytoceramide
3 | CCCCCCCCCCCCCC[C@@H](O)[C@@H](O)[C@H](CO)NC(C)=O [N-acetyl phytosphingosine] |  |  | excellent PKC inhibition effects |  | 
4 | lysophosphatidic acid | highly accelerate the rates of wound healing |  |  |  | 
